Measured values from patent EP0181109B1, “N6-benzopyrano- and benzothiopyrano-adenosines” (WARNER-LAMBERT COMPANY, priority 1984, dated 1986).

Key:
[1] = tested on: spontaneous locomotion; experiment: Mouse Activity and Screen Test Procedure (MAST): locomotor activity in actophotometer; type: in vivo, Swiss-Webster male mice; settings: one hour prior to testing
Experimental: (§1) Nine unfasted Swiss-Webster male mice weighing 20-30 g are equally divided into three groups for each drug dose to be tested. There is, data for each dose level was generated by three separate groups of three mice each.
(§2) A minimum of three dose levels (10, 30, and 100 mg/kg) are tested for each drug. Treatments are administered intraperitoneally one hour prior to testing. All dosages are calculated as parent compound and given in volumes of 10 ml/kg. Compounds are dissolved or suspended in 0.2% Methocel. Control animals are injected with Methocel.
The actophotometer consists of a cylindrical chamber whose center is occupied by another cylinder which contains the illumination for six photocells located on the perimeter of the chamber. Six light-beam interruptions equal one count. Locomotor activity is recorded by computer at ten minute intervals for 60 minutes.
Data: The data obtained from the screen test are expressed as percent of mice falling off the screen. Data derived from locomotor activity of drug treated mice are compared to the activity of vehicle treated animals and are expressed as percent inhibition of spontaneous locomotion. All percentages reported for inhibition of locomotion (LI) are based upon data accumulated for one hour. […] An overall dose rating is obtained by the following criteria:
LAD refers to the lowest dose at which an A rating is achieved. […] The compounds are identified in the Examples.

[2] = target: T1, adenosine A1 receptor (Rattus norvegicus, UniProt P25099); experiment: Adenosine Receptor Binding - A1 Receptor Affinity (RBA 1), [3H]-CHA displacement; settings: rat whole brain membranes, 1.0 nM [3H]-CHA, one hour at 25°C
T1 construct: Whole brain minus cerebellum and brainstem from male Long Evans rats (150-200 g) was homogenized; from tissue; host or cells: rat whole brain minus cerebellum and brainstem (membrane homogenate)
T1 sequence (P25099 1-326): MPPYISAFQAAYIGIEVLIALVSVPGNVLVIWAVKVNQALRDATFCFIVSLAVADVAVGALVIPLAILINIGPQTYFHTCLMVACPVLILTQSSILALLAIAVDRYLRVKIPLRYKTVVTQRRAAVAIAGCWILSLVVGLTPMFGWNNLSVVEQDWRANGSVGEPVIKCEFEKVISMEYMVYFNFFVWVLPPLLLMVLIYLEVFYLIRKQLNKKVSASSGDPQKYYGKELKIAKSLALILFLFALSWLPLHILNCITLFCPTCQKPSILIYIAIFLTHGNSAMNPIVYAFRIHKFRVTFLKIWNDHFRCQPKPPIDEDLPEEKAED
Experimental: Whole brain minus cerebellum and brainstem from male Long Evans rats (150-200 g) was homogenized in 30 volumes of ice-cold 0.05 M Tris-HCI buffer pH 7.7 using a Brinkman Polytron PT-10, (setting number 6 for 20 seconds) and centrifuged for ten minutes at 20,000 x g (Sorvall RC-2), 4°C. The supernatant was discarded, and the pellet was resuspended and centrifuged as before. The pellet was resuspended in 20 ml Tris-HCI buffer containing two International Units/ml of adenosine deaminase (Sigma Type III from calf intestinal mucosa), incubated at 37°C for 30 minutes, then subsequently at 0°C for ten minutes. The homogenate was again centrifuged, and the final pellet was resuspended in ice-cold 0.05 M Tris-HCI buffer pH 7.7 to a concentration of 20 mg/ml original wet tissue weight and used immediately.
Tissue homogenate (10 mg/ml) was incubated in 0.05 M Tris-HCI buffer pH 7.7 containing 1.0 nM [^3H]-N^6-cyclohexyladenosine (^3H]-CHA) with or without test agents in triplicate for one hour at 25°C. Incubation volume was 2 ml. Unbound [^3H]-CHA was separated by rapid filtration under reduced pressure through Whatman glass fiber (GF/B) filters. The filters were rinsed three times with 5 ml of ice cold 0.05 M Tris-HCI buffer pH 7.7. The radio-labele ligand retained on the filter was measured by liquid scintillation spectrophotometry after shaking the filters for one hour or longer on a mechanical shaker in 10 ml of Beckman Ready-Solv HP scintillation cocktail.
Nonspecific binding was defined as the binding which occurred in the presence of 1 mM theophylline. The concentration of test agent which inhibited 50% of the specific binding (IC50) was determined by nonlinear computer curve fit. The Scatchard plot was calculated by linear regression of the line obtained by plotting the amount of radioligand bound (pmoles/gram of tissue) versus
• bound radioligand • free radioligand Since the amount of radioligand bound was a small fraction of the total amount added, free radioligand was defined as the concentration (nM) of radioligand added to the incubation mixture. The Hill coefficient was calculated by linear regression of the line obtained by plotting the log of the bound radioligand vs the log of the • bound radioligand • Bmax - bound radioligand • The maximal number of binding sites (Bmax) was calculated from the Scatchard plot.

[3] = tested on: mice falling off the inverted screen; experiment: Mouse Activity and Screen Test Procedure (MAST): screen test (ST); type: in vivo, Swiss-Webster male mice; settings: one hour postinjection, percent of mice falling off the screen
Excerpt: The compounds of the invention are new chemical substances which are useful as pharmaceutical agents for the treatment of psychoses. The antipsychotic activity of representative compounds of the invention was established by the Mouse Activity and Screen Test Procedure (MAST) described below.
as §1, §2
Testing: A two part testing procedure is started one hour postinjection. First, the screen test (ST) is performed (see Pharmac. Biochem. Behav. 6,351-353,1977). Briefly this test consists of placing mice on individual wire screens which are then rotated 180 degrees at the start of a 60 second observation period. The number of mice falling off the inverted screen is recorded.
Data: The data obtained from the screen test are expressed as percent of mice falling off the screen. Data derived from locomotor activity of drug treated mice are compared to the activity of vehicle treated animals and are expressed as percent inhibition of spontaneous locomotion. All percentages reported for inhibition of locomotion (LI) are based upon data accumulated for one hour. Both phases of testing are graded: A=60-100%; C=31-59%; and N=0-30%. An overall dose rating is obtained by the following criteria:
LAD refers to the lowest dose at which an A rating is achieved. […] Utilizing this procedure, an overall dose rating of A was obtained for the noted compound at the indicated dose. The compounds are identified in the Examples.

| SMILES | Inhibition of Mouse Locomotion Activity ([1]; 1 mg/kg intraperitoneally) | Inhibition of Mouse Locomotion Activity ([1]; 3 mg/kg intraperitoneally) | Inhibition of Mouse Locomotion Activity ([1]; 10 mg/kg intraperitoneally) | Inhibition of Mouse Locomotion Activity ([1]; 30 mg/kg intraperitoneally) | Inhibition of Mouse Locomotion Activity ([1]; 100 mg/kg intraperitoneally) | IC50 [2] | Screen Test Failure ([3]; 1 mg/kg intraperitoneally) | Screen Test Failure ([3]; 3 mg/kg intraperitoneally) | Screen Test Failure ([3]; 10 mg/kg intraperitoneally) | Screen Test Failure ([3]; 30 mg/kg intraperitoneally) | Screen Test Failure ([3]; 100 mg/kg intraperitoneally) | Inhibition of Mouse Locomotion Activity ([1]; 0.3 mg/kg intraperitoneally) | Inhibition of Mouse Locomotion Activity ([1]; 9.0 mg/kg intraperitoneally) | Screen Test Failure ([3]; 0.3 mg/kg intraperitoneally) | Screen Test Failure ([3]; 9.0 mg/kg intraperitoneally) |
| --- | --- | --- | --- | --- | --- | --- | --- | --- | --- | --- | --- | --- | --- | --- | --- |
| OC[C@H]1O[C@@H](n2cnc3c(NC4COc5c(Cl)cccc5C4)ncnc32)[C@H](O)[C@@H]1O (stereo partly drawn) [Example 5] | -14% | 30% | 89% | 97% | 99% | 17 nM | 0% | 0% | 22% | 55% | 44% |  |  |  |  |
| COc1ccc2c(c1)CC(Nc1ncnc3c1ncn3[C@@H]1O[C@H](CO)[C@@H](O)[C@H]1O)CO2 (stereo partly drawn) [Example 6] | 45% | 77% | 98% | 98% | 100% | 4.9 nM | 0% | 0% | 77% | 99% | 99% |  |  |  |  |
| CC1Oc2ccccc2CC1Nc1ncnc2c1ncn2C1OC(CO)C(O)C1O (stereo not drawn) [Example 7, N^6-[cis-2-Methyl-3-chromanylamino]adenosine] | 57% | 95% |  | 93% |  | 7.8 nM | 0% | 22% |  | 100% |  | 6% | 96% | 0% | 55% |
| Cc1cc2c(cc1C)OCC(Nc1ncnc3c1ncn3[C@@H]1O[C@H](CO)[C@@H](O)[C@H]1O)C2 (stereo partly drawn) [Example 9, N^6-[6,7-Dimethyl-3-chromanylamino]adenosine] | 11% | 34% | 77% | 96% | 97% | 8.1 nM | 0% | 0% | 22% | 44% | 77% |  |  |  |  |
| Cc1ccc2c(c1C)OCC(Nc1ncnc3c1ncn3[C@@H]1O[C@H](CO)[C@@H](O)[C@H]1O)C2 (stereo partly drawn) [Example 10, N^6-[7,8-Dimethyl-3-chromanylamino]adenosine] | -8% | 33% | 85% | 91% | 96% | 27 nM | 0% | 0% | 11% | 22% | 55% |  |  |  |  |
| Cc1ccc2c(c1C)OC(C)C(Nc1ncnc3c1ncn3[C@@H]1O[C@H](CO)[C@@H](O)[C@H]1O)C2 (stereo partly drawn) [Example 11] | 13% | 27% | 90% | 95% | 99% | 32 nM | 0% | 0% | 11% | 22% | 67% |  |  |  |  |
